The term IC50 denotes the concentration needed to halve the response being measured. A lower IC50 goes with higher potency.

Among the data in article PMC2248166, “Quantitative peptide binding motifs for 19 human and mouse MHC class I molecules derived using positional scanning combinatorial peptide libraries” (Immunome Research, 2008) are IC50 values, retold here.

Where a SMILES comes first, the peptide text is derived from it.

The assay has as its target HLA A*3201 (Homo sapiens, UniProt P04439, A270S/D101S/D185E/E176V/E277Q/F133L/G103R/G107R/G231S/H175R/I121M/I218V/I322F/K168Q/L105A/L300P/L318F/M331R/P208A/P217A/Q94H/R106L/R138Q/S129P/T104I/T323A/T345S/V100E/V321M/V358M). Kind of assay: biochemical. The format is binding.
Take `CC[C@H](C)[C@H](N)C(=O)N[C@H](C(=O)N[C@@H](Cc1ccc(O)cc1)C(=O)N[C@@H](CCC(=O)O)C(=O)N[C@@H](CCCCN)C(=O)N[C@@H](CO)C(=O)N[C@@H](CC(N)=O)C(=O)N[C@@H](CC(N)=O)C(=O)N[C@H](C(=O)O)[C@@H](C)CC)[C@@H](C)O` [3102.0422] (H-ITYEKSNNI-OH): the IC50 was determined as 18 nM. In the case of `CC[C@H](C)[C@H](NC(=O)[C@@H](NC(=O)[C@H](CCCNC(=N)N)NC(=O)[C@@H]1CCCN1C(=O)[C@H](Cc1ccccc1)NC(=O)[C@H](Cc1ccccc1)NC(=O)[C@H](CCSC)NC(=O)[C@@H](NC(=O)[C@H](C)N)[C@@H](C)CC)[C@@H](C)O)C(=O)O` [3102.0423] (H-AIMFFPRTI-OH) it was 1.1 nM. `CC(C)C[C@H](NC(=O)[C@@H](N)C(C)C)C(=O)N[C@@H](Cc1ccc(O)cc1)C(=O)N[C@@H](CC(N)=O)C(=O)N[C@@H](CC(N)=O)C(=O)N[C@H](C(=O)N[C@H](C(=O)N[C@@H](CCC(=O)O)C(=O)N[C@@H](Cc1ccccc1)C(=O)O)C(C)C)C(C)C` [3102.0424] (H-VLYNNVVEF-OH) yielded an IC50 of 1.5 nM.

Turning to `CC[C@H](C)[C@H](NC(=O)[C@@H](N)CO)C(=O)N[C@@H](Cc1ccc(O)cc1)C(=O)N[C@@H](CCCNC(=N)N)C(=O)N[C@@H](CCSC)C(=O)N[C@@H](CO)C(=O)N[C@@H](Cc1ccc(O)cc1)C(=O)N[C@@H](CCC(N)=O)C(=O)N[C@@H](Cc1ccccc1)C(=O)O` [3102.0425] (H-SIYRMSYQF-OH), the midpoint of inhibition, the IC50, lay at 0.8 nM.

On to `CSCC[C@H](NC(=O)[C@H](C)NC(=O)[C@@H](N)CC(C)C)C(=O)N[C@@H](CC(N)=O)C(=O)N[C@@H](CO)C(=O)N[C@H](C(=O)N[C@@H](Cc1ccccc1)C(=O)N[C@H](C(=O)N[C@@H](Cc1ccccc1)C(=O)O)[C@@H](C)O)C(C)C` [3102.0426] (H-LAMNSVFTF-OH), for which the half-maximal inhibitory concentration (IC50) is 16 nM. In the case of `CC[C@H](C)[C@H](NC(=O)[C@H](CC(C)C)NC(=O)[C@@H](NC(=O)[C@H](CC(N)=O)NC(=O)[C@H](CC(N)=O)NC(=O)[C@H](CO)NC(=O)[C@H](Cc1ccccc1)NC(=O)[C@H](CCSC)NC(=O)[C@@H](N)CCCCN)C(C)C)C(=O)O` [3102.0427] (H-KMFSNNVLI-OH) it was 1.1 nM; in that of `CC[C@H](C)[C@H](NC(=O)[C@H](CC(C)C)NC(=O)[C@@H](N)CCCNC(=N)N)C(=O)N[C@@H](CC(N)=O)C(=O)N[C@@H](CC(N)=O)C(=O)N[C@@H](CCCNC(=N)N)C(=O)N[C@H](C(=O)N[C@@H](CC(C)C)C(=O)N[C@@H](Cc1ccccc1)C(=O)O)C(C)C` [3102.0428] (H-RLINNRVLF-OH), 5.7 nM. In the case of `CC[C@H](C)[C@H](NC(=O)[C@H](CCCCN)NC(=O)[C@H](Cc1ccccc1)NC(=O)[C@H](CC(N)=O)NC(=O)[C@H](CC(N)=O)NC(=O)[C@H](Cc1ccccc1)NC(=O)[C@H](CC(C)C)NC(=O)[C@@H](NC(=O)[C@@H](N)CCCNC(=N)N)C(C)C)C(=O)O` [3102.0429] (H-RVLFNNFKI-OH) it was 0.89 nM. Compound `CC[C@H](C)[C@H](NC(=O)[C@@H](NC(=O)[C@H](CC(N)=O)NC(=O)[C@H](Cc1ccccc1)NC(=O)[C@H](Cc1ccccc1)NC(=O)[C@@H](NC(=O)[C@@H](NC(=O)[C@@H](NC(=O)[C@@H](N)CCCCN)C(C)C)C(C)C)[C@@H](C)CC)[C@@H](C)O)C(=O)O` [3102.0430] (H-KVVIFFNTI-OH) showed an IC50 of 8.3 nM.

Compound `CC[C@H](C)[C@H](NC(=O)[C@@H](NC(=O)[C@@H](NC(=O)[C@H](CC(N)=O)NC(=O)[C@H](Cc1ccccc1)NC(=O)[C@H](Cc1ccccc1)NC(=O)[C@@H](NC(=O)[C@@H](NC(=O)[C@@H](N)C(C)C)C(C)C)[C@@H](C)CC)[C@@H](C)O)[C@@H](C)CC)C(=O)O` [3102.0431] (H-VVIFFNTII-OH) returned an IC50 of 15 nM. In the case of `CC[C@H](C)[C@H](NC(=O)[C@H](CC(N)=O)NC(=O)[C@H](CC(N)=O)NC(=O)[C@H](CC(C)C)NC(=O)[C@@H](NC(=O)[C@H](CC(N)=O)NC(=O)[C@H](Cc1ccc(O)cc1)NC(=O)[C@H](CC(C)C)NC(=O)[C@@H](N)Cc1c[nH]cn1)[C@@H](C)CC)C(=O)O` [3102.0432] (H-HLYNILNNI-OH) it was 73 nM; in that of `CC[C@H](C)[C@H](NC(=O)[C@H](CO)NC(=O)[C@@H](NC(=O)[C@H](CCCCN)NC(=O)CNC(=O)[C@H](Cc1ccccc1)NC(=O)[C@H](Cc1ccccc1)NC(=O)[C@@H](NC(=O)[C@@H](N)CCCNC(=N)N)[C@@H](C)CC)[C@@H](C)O)C(=O)O` [3102.0433] (H-RIFFGKTSI-OH), 1.3 nM; in that of `CC[C@H](C)[C@H](NC(=O)[C@@H](NC(=O)[C@@H](NC(=O)[C@H](CCCCN)NC(=O)[C@H](CC(N)=O)NC(=O)[C@H](CC(N)=O)NC(=O)[C@H](C)NC(=O)[C@H](CC(C)C)NC(=O)[C@@H](N)CCCNC(=N)N)C(C)C)[C@@H](C)O)C(=O)O` [3102.0434] (H-RLANNKVTI-OH), 1.5 nM. In the case of `CC[C@H](C)[C@H](N)C(=O)N[C@H](C(=O)N[C@H](C(=O)N[C@@H](Cc1ccccc1)C(=O)N[C@@H](Cc1ccccc1)C(=O)N[C@H](C(=O)N[C@H](C(=O)N[C@@H](CC(C)C)C(=O)N[C@H](C(=O)O)[C@@H](C)CC)C(C)C)[C@@H](C)CC)[C@@H](C)CC)[C@@H](C)CC` [3102.0435] (H-IIIFFIVLI-OH) it was 14 nM; in that of `CC[C@H](C)[C@H](N)C(=O)N[C@H](C(=O)N[C@@H](Cc1ccccc1)C(=O)N[C@@H](Cc1ccccc1)C(=O)N[C@H](C(=O)N[C@H](C(=O)N[C@@H](CC(C)C)C(=O)N[C@H](C(=O)N[C@@H](CC(C)C)C(=O)O)[C@@H](C)CC)C(C)C)[C@@H](C)CC)[C@@H](C)CC` [3102.0436] (H-IIFFIVLIL-OH), 12 nM; in that of `CC[C@H](C)[C@H](NC(=O)CNC(=O)[C@@H](NC(=O)[C@H](C)NC(=O)[C@@H](NC(=O)[C@H](CCCNC(=N)N)NC(=O)[C@H](CCSC)NC(=O)[C@H](CC(C)C)NC(=O)[C@@H](N)CCSC)C(C)C)C(C)C)C(=O)O` [3102.0437] (H-MLMRVAVGI-OH), 0.69 nM. In the case of `CC(C)C[C@H](NC(=O)[C@H](CO)NC(=O)[C@H](CC(N)=O)NC(=O)[C@H](CCCNC(=N)N)NC(=O)[C@H](CC(C)C)NC(=O)CNC(=O)[C@H](Cc1ccc(O)cc1)NC(=O)[C@@H](NC(=O)[C@@H](N)CCCNC(=N)N)[C@@H](C)O)C(=O)O` [3102.0438] (H-RTYGLRNSL-OH) it was 0.63 nM; in that of `CC[C@H](C)[C@H](NC(=O)CNC(=O)[C@H](CC(N)=O)NC(=O)[C@H](CO)NC(=O)[C@@H](NC(=O)CNC(=O)[C@H](CC(N)=O)NC(=O)[C@@H](NC(=O)CN)[C@@H](C)O)[C@@H](C)CC)C(=O)O` [3102.0439] (H-GTNGISNGI-OH), 20 nM; in that of `CC[C@H](C)[C@H](NC(=O)[C@H](CCC(=O)O)NC(=O)[C@H](CS)NC(=O)[C@@H](NC(=O)[C@@H](N)CO)[C@@H](C)CC)C(=O)N[C@H](C(=O)N[C@@H](Cc1ccc(O)cc1)C(=O)N[C@@H](CO)C(=O)N[C@@H](Cc1ccccc1)C(=O)O)C(C)C` [3102.0440] (H-SICEIVYSF-OH), 0.35 nM.

`CC[C@H](C)[C@H](N)C(=O)N[C@H](C(=O)N[C@@H](Cc1c[nH]c2ccccc12)C(=O)N[C@@H](CCCCN)C(=O)NCC(=O)N[C@H](C(=O)N[C@@H](Cc1ccc(O)cc1)C(=O)N[C@H](C(=O)N[C@@H](Cc1ccc(O)cc1)C(=O)O)[C@@H](C)O)[C@@H](C)CC)[C@@H](C)CC` [3102.0441] (H-IIWKGIYTY-OH) registered an IC50 of 3.3 nM. The result for `CC(C)C[C@H](NC(=O)[C@H](CO)NC(=O)[C@@H](N)CCCCN)C(=O)N[C@@H](CCCCN)C(=O)N[C@@H](CCCCN)C(=O)N[C@H](C(=O)N[C@@H](Cc1ccc(O)cc1)C(=O)N[C@H](C(=O)N[C@@H](Cc1ccccc1)C(=O)O)[C@@H](C)O)C(C)C` [3102.0442] (H-KSLKKVYTF-OH) reads 0.49 nM; that for `CC[C@H](C)[C@H](NC(=O)[C@H](CO)NC(=O)[C@H](CCCCN)NC(=O)[C@H](Cc1ccccc1)NC(=O)[C@H](CC(C)C)NC(=O)[C@@H](NC(=O)[C@@H](N)CCSC)[C@@H](C)O)C(=O)N[C@@H](CC(C)C)C(=O)N[C@@H](Cc1ccccc1)C(=O)O` [3102.0443] (H-MTLFKSILF-OH), 11 nM; that for `CC[C@H](C)[C@H](NC(=O)[C@H](CO)NC(=O)[C@H](C)NC(=O)[C@H](Cc1ccc(O)cc1)NC(=O)[C@@H](NC(=O)[C@H](CCC(=O)O)NC(=O)[C@H](CC(N)=O)NC(=O)[C@@H](NC(=O)[C@@H](N)CC(C)C)[C@@H](C)O)[C@@H](C)CC)C(=O)O` [3102.0445] (H-LTNEIYASI-OH), 13 nM. In the case of `CC[C@H](C)[C@H](NC(=O)[C@H](CC(N)=O)NC(=O)[C@H](CCSC)NC(=O)[C@H](CCSC)NC(=O)[C@@H](N)Cc1ccc(O)cc1)C(=O)N[C@@H](Cc1ccc(O)cc1)C(=O)N[C@@H](CC(C)C)C(=O)N[C@@H](CC(N)=O)C(=O)N[C@@H](Cc1ccccc1)C(=O)O` [3102.0446] (H-YMMNIYLNF-OH) it was 2.9 nM.

As to `CC[C@H](C)[C@H](NC(=O)[C@H](CCSC)NC(=O)[C@H](CC(=O)O)NC(=O)[C@H](CCSC)NC(=O)[C@@H](N)CC(C)C)C(=O)N[C@H](C(=O)N[C@@H](CC(C)C)C(=O)N[C@@H](CO)C(=O)N[C@@H](CC(C)C)C(=O)O)[C@@H](C)O` [3102.0448] (H-LMDMITLSL-OH), the IC50 worked out at 30 nM.

In turn, `CC[C@H](C)[C@H](NC(=O)[C@H](CO)NC(=O)[C@@H](NC(=O)[C@@H](NC(=O)[C@H](Cc1ccc(O)cc1)NC(=O)[C@H](CC(N)=O)NC(=O)[C@H](CO)NC(=O)[C@H](CC(C)C)NC(=O)[C@@H](N)Cc1c[nH]cn1)[C@@H](C)CC)C(C)C)C(=O)O` [3102.0449] (H-HLSNYIVSI-OH) registered a half-inhibitory concentration (IC50) of 0.99 nM. Compound `CC[C@H](C)[C@H](NC(=O)[C@@H](NC(=O)[C@H](CC(N)=O)NC(=O)[C@H](CO)NC(=O)[C@H](CC(N)=O)NC(=O)[C@H](C)NC(=O)[C@@H](NC(=O)[C@@H](NC(=O)[C@@H](N)CO)[C@@H](C)O)[C@@H](C)CC)[C@@H](C)CC)C(=O)O` [3102.0451] (H-STIANSNII-OH) registered an IC50 of 14 nM.
